Experimental data: ChEMBL document CHEMBL1126463, “Thiol-induced crosslinking of human blood proteins: implications for tumor immunity” (Bioorg Med Chem Lett, 1992)

Assay: Effect of compound on gelation time of human serum induced by dithiothreitol (DTT)
Assay type: ADME

Work on NC(CSSCC(N)C(=O)O)C(=O)O (stereo not drawn) yielded an Inhibitory concentration of 20 mM.

C=CCSS/C=C/C[S+]([O-])CC=C (stereo not drawn) [AJOENE] showed an Inhibitory concentration of 10 mM.

Work on O=C1O[C@H]([C@@H](O)CO)C(O)=C1O [ASCORBIC ACID] yielded an Inhibitory concentration greater than 100 mM.

In the case of N[C@@H](CS)C(=O)O [CYSTEINE], the Inhibitory concentration was greater than 200 mM.

Work on O=C1OC(C(O)CO)C(=O)C1=O (stereo not drawn) [DEHYDROASCORBIC ACID] yielded an Inhibitory concentration of 20 mM.

Molecule C=CCSCC=C [DIALLYL SULFIDE] has an Inhibitory concentration greater than 200 mM.

With C=CCSSCC=C [DIALLYLDISULFIDE] the Inhibitory concentration was 20 mM.

Molecule CC(=O)C=O [METHYLGLYOXAL] has an Inhibitory concentration of 20 mM.
